Measurements from patent US20010044457A1, “Cancer Treatment” (priority 2000, published 2001).

Tested on: pancreatic (MiaPaCa) cancer
Experiment: in vivo pancreatic (MiaPaCa) cancer nude mouse tumor model
Procedure: The control is PEG. Both the control and the active are given once a week to the end. The doses were 500 mg/kg, 750 mg/kg and 1000 mg/kg. The surviving animals average tumor weight in mg is: […]

COc1ccc(C=Nn2cc(-c3ccccc3)nc2N)cc1 [2-Amino-1-(4-methoxybenzyliden)amino-4-phenylimidazole]
Deaths (500 mg/kg once a week, Day 1): 0
Tumor Weight (surviving animals average) (500 mg/kg once a week, Day 1): 77 mg
Deaths (500 mg/kg once a week, Day 5): 0
Tumor Weight (surviving animals average) (500 mg/kg once a week, Day 5): 161 mg
Deaths (500 mg/kg once a week, Day 9): 0
Tumor Weight (surviving animals average) (500 mg/kg once a week, Day 9): 322 mg
Deaths (500 mg/kg once a week, Day 12): 0
Tumor Weight (surviving animals average) (500 mg/kg once a week, Day 12): 271 mg
Deaths (500 mg/kg once a week, Day 16): 0
Tumor Weight (surviving animals average) (500 mg/kg once a week, Day 16): 596 mg
Deaths (500 mg/kg once a week, Day 19): 0
Tumor Weight (surviving animals average) (500 mg/kg once a week, Day 19): 640 mg
Deaths (500 mg/kg once a week, Day 23): 0
Tumor Weight (surviving animals average) (500 mg/kg once a week, Day 23): 638 mg
Deaths (500 mg/kg once a week, Day 26): 0
Tumor Weight (surviving animals average) (500 mg/kg once a week, Day 26): 532 mg
efficacy in tumor model (500 mg/kg, 750 mg/kg and 1000 mg/kg once a week, control PEG): dose responsive efficacy
Deaths (750 mg/kg once a week, Day 1): 0
Tumor Weight (surviving animals average) (750 mg/kg once a week, Day 1): 76 mg
Deaths (750 mg/kg once a week, Day 5): 0
Tumor Weight (surviving animals average) (750 mg/kg once a week, Day 5): 117 mg
Deaths (750 mg/kg once a week, Day 9): 0
Tumor Weight (surviving animals average) (750 mg/kg once a week, Day 9): 290 mg
Deaths (750 mg/kg once a week, Day 12): 0
Tumor Weight (surviving animals average) (750 mg/kg once a week, Day 12): 281 mg
Deaths (750 mg/kg once a week, Day 16): 0
Tumor Weight (surviving animals average) (750 mg/kg once a week, Day 16): 369 mg
Deaths (750 mg/kg once a week, Day 19): 0
Tumor Weight (surviving animals average) (750 mg/kg once a week, Day 19): 364 mg
Deaths (750 mg/kg once a week, Day 23): 0
Tumor Weight (surviving animals average) (750 mg/kg once a week, Day 23): 420 mg
Deaths (750 mg/kg once a week, Day 26): 0
Tumor Weight (surviving animals average) (750 mg/kg once a week, Day 26): 418 mg
Deaths (1000 mg/kg once a week, Day 1): 0
Tumor Weight (surviving animals average) (1000 mg/kg once a week, Day 1): 90 mg
Deaths (1000 mg/kg once a week, Day 5): 0
Tumor Weight (surviving animals average) (1000 mg/kg once a week, Day 5): 90 mg
Deaths (1000 mg/kg once a week, Day 9): 0
Tumor Weight (surviving animals average) (1000 mg/kg once a week, Day 9): 150 mg
Deaths (1000 mg/kg once a week, Day 12): 0
Tumor Weight (surviving animals average) (1000 mg/kg once a week, Day 12): 130 mg
Deaths (1000 mg/kg once a week, Day 16): 0
Tumor Weight (surviving animals average) (1000 mg/kg once a week, Day 16): 120 mg
Deaths (1000 mg/kg once a week, Day 19): 1
Tumor Weight (surviving animals average) (1000 mg/kg once a week, Day 19): 110 mg
Deaths (1000 mg/kg once a week, Day 23): 0
Tumor Weight (surviving animals average) (1000 mg/kg once a week, Day 23): 198 mg
Deaths (1000 mg/kg once a week, Day 26): 0
Tumor Weight (surviving animals average) (1000 mg/kg once a week, Day 26): 192 mg
